Results from US20070128217A1 (priority 2003, published 2007).

Assays:
[1] = test system: antibodies in sera from SARS patients (sera 1a, 1b, 2, 6, 37, 62, London, SARS-yellow, SARS-green); type: binding, human; parameters: Binding of serum 6 to linear peptides of protein X1 of SARS-CoV Urbani / Binding of serum 37 to linear peptides of protein X1 of SARS-CoV Urbani / Binding of serum 6 to looped/cyclic peptide (PEPSCAN-ELISA) / Binding of serum 37 to looped/cyclic peptide (PEPSCAN-ELISA) / Binding of serum 37 to looped/cyclic peptides of protein X1 of SARS-CoV Urbani / Binding of serum 6 to linear peptides of protein X2 / Binding of serum 37 to linear peptides of protein X2 / Binding of serum 37 to looped/cyclic peptides of protein X2 of SARS-CoV Urbani / Binding of serum 6 to linear peptides of protein M of SARS-CoV Urbani / Binding of serum 37 to linear peptides of protein M of SARS-CoV Urbani / Binding of serum 6 to looped/cyclic peptides of protein M of SARS-CoV Urbani / Binding of serum 37 to looped/cyclic peptides of protein M of SARS-CoV Urbani / Binding of serum 6 to linear peptides of protein X3 of SARS-CoV Urbani / Binding of serum 37 to linear peptides of protein X3 of SARS-CoV Urbani / Binding of serum 37 to looped/cyclic peptides of protein X3 of SARS-CoV Urbani / Binding of serum 6 to linear peptides of protein X4 of SARS-CoV Urbani / Binding of serum 37 to linear peptides of protein X4 of SARS-CoV Urbani / Binding of serum 37 to looped/cyclic peptides of protein X4 of SARS-CoV Urbani / Binding of serum 6 to linear peptides of protein X5 of SARS-CoV Urbani / Binding of serum 37 to linear peptides of protein X5 of SARS-CoV Urbani / Binding of serum 37 to looped/cyclic peptides of protein X5 of SARS-CoV Urbani / Binding of serum 6 to linear peptides of protein N of SARS-CoV Urbani / Binding of serum 37 to linear peptides of protein N of SARS-CoV Urbani / Binding of serum 6 to linear peptide (PEPSCAN-ELISA) / Binding of serum 1a to looped/cyclic peptides of protein N of SARS-CoV Urbani / Binding of serum 1b to looped/cyclic peptides of protein N of SARS-CoV Urbani / Binding of serum 2 to looped/cyclic peptides of protein N of SARS-CoV Urbani / Binding of serum 6 to looped/cyclic peptides of protein N of SARS-CoV Urbani / Binding of serum 37 to looped/cyclic peptides of protein N of SARS-CoV Urbani / Binding of serum 62 to looped/cyclic peptides of protein N of SARS-CoV Urbani / Binding of serum London to looped/cyclic peptides of protein N of SARS-CoV Urbani / Binding of serum SARS-green to looped/cyclic peptides of protein N of SARS-CoV Urbani: unit not given here
[2] = test system: control sera (pooled serum of ten healthy LUMC hospital workers; commercial negative donor pooled serum from the Dutch bloodbank); type: binding, human; parameters: Binding of Control serum LUMC to linear peptides / Binding of Control serum Blood-bank to linear peptides / Binding of Control serum LUMC to looped peptides / Binding of Control Serum Blood-Bank to Looped peptides / Binding of Control serum LUMC to linear peptides of the protein M of SARS-CoV Urbani / Binding of Control serum Blood-bank to linear peptides of the protein M of SARS-CoV Urbani / Binding of Control serum LUMC to looped peptides of the protein M of SARS-CoV Urbani / Binding of Control Serum Blood-Bank to Looped peptides of the protein M of SARS-CoV Urbani: unit not given here
[3] = test system: rabbit serum obtained by immunizing a rabbit with the SARS-CoV strain Frankfurt 1; type: binding; parameters: Binding of a rabbit serum to linear peptides / Binding of a rabbit serum to looped peptides / Rabbit serum linear peptides / Rabbit serum looped peptides / Binding of a rabbit serum to linear peptides of protein N of SARS-CoV Urbani (Rabbit serum linear peptides) / Binding of a rabbit serum to looped/cyclic peptides of protein N of SARS-CoV Urbani (Rabbit serum looped peptides): unit not given here

Sequence	Binding of serum 1a to linear peptides of protein X2 [1]	Binding of serum 1a to looped/cyclic peptides of protein X2 of SARS-CoV Urbani [1]	Binding of serum 1b to linear peptides of protein X2 [1]	Binding of serum 1b to looped/cyclic peptides of protein X2 of SARS-CoV Urbani [1]	Binding of serum 2 to linear peptides of protein X2 [1]	Binding of serum 2 to looped/cyclic peptides of protein X2 of SARS-CoV Urbani [1]	Binding of serum 6 to linear peptides of protein X2 [1]	Binding of serum 6 to looped/cyclic peptides of protein X2 of SARS-CoV Urbani [1]	Binding of serum 37 to linear peptides of protein X2 [1]	Binding of serum 37 to looped/cyclic peptides of protein X2 of SARS-CoV Urbani [1]	Binding of serum 62 to looped/cyclic peptides of protein X2 of SARS-CoV Urbani [1]	Binding of serum London to looped/cyclic peptides of protein X2 of SARS-CoV Urbani [1]	Binding of serum SARS-green to looped/cyclic peptides of protein X2 of SARS-CoV Urbani [1]	Binding of serum SARS-yellow to looped/cyclic peptides of protein X2 of SARS-CoV Urbani [1]	Binding of Control Serum Blood-Bank to Looped peptides [2]	Binding of Control serum Blood-bank to linear peptides [2]	Binding of Control serum LUMC to linear peptides [2]	Binding of Control serum LUMC to looped peptides [2]	Binding of a rabbit serum to linear peptides [3]	Binding of a rabbit serum to looped peptides [3]	other results
KVTAFQHQNSKKTTK	0.3	0.2	0.2	0.2	0.2	0.0	0.2	0.0	0.3	0.2	0.3	0.1	0.0	0.1	0.3	0.2	0.3	0.3	0.6	0.2	Binding of serum 62 to linear peptides of protein X2 [1]: 0.2; Binding of serum London to linear peptides of protein X2 [1]: 0.1; Binding of serum SARS-green to linear peptides of protein X2 [1]: 0.0; Binding of serum SARS-yellow to linear peptides of protein X2 [1]: 0.4
VTDTIVVTEGDGIST															0.4	0.4	0.4	0.4	0.1	0.5	Binding of serum 1a to linear peptides of protein X1 of SARS-CoV Urbani [1]: 0.6; Binding of serum 1a to looped/cyclic peptides of protein X1 of SARS-CoV Urbani [1]: 0.4; Binding of serum 1b to linear peptides of protein X1 of SARS-CoV Urbani [1]: 0.5; Binding of serum 1b to looped/cyclic peptides of protein X1 of SARS-CoV Urbani [1]: 0.3; Binding of serum 2 to linear peptides of protein X1 of SARS-CoV Urbani [1]: 0.3; Binding of serum 2 to looped/cyclic peptides of protein X1 of SARS-CoV Urbani [1]: 0.2; Binding of serum 6 to linear peptides of protein X1 of SARS-CoV Urbani [1]: 0.4; Binding of serum 6 to looped/cyclic peptides of protein X1 of SARS-CoV Urbani [1]: 0.1; Binding of serum 37 to linear peptides of protein X1 of SARS-CoV Urbani [1]: 0.5; Binding of serum 37 to looped/cyclic peptides of protein X1 of SARS-CoV Urbani [1]: 0.4; Binding of serum 62 to linear peptides of protein X1 of SARS-CoV Urbani [1]: 0.4; Binding of serum 62 to looped/cyclic peptides of protein X1 of SARS-CoV Urbani [1]: 0.4; Binding of serum London to linear peptides of protein X1 of SARS-CoV Urbani [1]: 0.2; Binding of serum London to looped/cyclic peptides of protein X1 of SARS-CoV Urbani [1]: 0.2; Binding of serum SARS-green to linear peptides of protein X1 of SARS-CoV Urbani [1]: 0.1; Binding of serum SARS-green to looped/cyclic peptides of protein X1 of SARS-CoV Urbani [1]: 0.2; Binding of serum SARS-yellow to linear peptides of protein X1 of SARS-CoV Urbani [1]: 0.3; Binding of serum SARS-yellow to looped/cyclic peptides of protein X1 of SARS-CoV Urbani [1]: 0.5
TRGNTYSTAWLCALG															0.4	0.7	0.6	0.6			Binding of serum 1a to linear peptides of protein X5 of SARS-CoV Urbani [1]: 0.8; Binding of serum 1a to looped/cyclic peptides of protein X5 of SARS-CoV Urbani [1]: 0.4; Binding of serum 1b to linear peptides of protein X5 of SARS-CoV Urbani [1]: 0.6; Binding of serum 1b to looped/cyclic peptides of protein X5 of SARS-CoV Urbani [1]: 0.1; Binding of serum 2 to linear peptides of protein X5 of SARS-CoV Urbani [1]: 0.6; Binding of serum 2 to looped/cyclic peptides of protein X5 of SARS-CoV Urbani [1]: 0.4; Binding of serum 6 to linear peptides of protein X5 of SARS-CoV Urbani [1]: 0.6; Binding of serum 6 to looped/cyclic peptides of protein X5 of SARS-CoV Urbani [1]: 0.3; Binding of serum 37 to linear peptides of protein X5 of SARS-CoV Urbani [1]: 0.8; Binding of serum 37 to looped/cyclic peptides of protein X5 of SARS-CoV Urbani [1]: 0.4; Binding of serum 62 to linear peptides of protein X5 of SARS-CoV Urbani [1]: 0.8; Binding of serum 62 to looped/cyclic peptides of protein X5 of SARS-CoV Urbani [1]: 0.6; Binding of serum London to linear peptides of protein X5 of SARS-CoV Urbani [1]: 0.7; Binding of serum London to looped/cyclic peptides of protein X5 of SARS-CoV Urbani [1]: 0.2; Binding of serum SARS-green to linear peptides of protein X5 of SARS-CoV Urbani [1]: 0.6; Binding of serum SARS-green to looped/cyclic peptides of protein X5 of SARS-CoV Urbani [1]: 0.3; Binding of serum SARS-yellow to linear peptides of protein X5 of SARS-CoV Urbani [1]: 0.5; Binding of serum SARS-yellow to looped/cyclic peptides of protein X5 of SARS-CoV Urbani [1]: 0.3; Rabbit serum linear peptides [3]: 0.7; Rabbit serum looped peptides [3]: 0.0
MAISPKFTTSLSLHK	0.7	0.5	0.7	0.5	0.7	0.4	0.6	0.4	0.7	0.4	0.6	0.2	0.4	0.5	0.7	1.0	0.7	0.6	0.3	0.6	Binding of serum 62 to linear peptides of protein X2 [1]: 0.7; Binding of serum London to linear peptides of protein X2 [1]: 0.5; Binding of serum SARS-green to linear peptides of protein X2 [1]: 0.5; Binding of serum SARS-yellow to linear peptides of protein X2 [1]: 0.5
KVSTNLCTHSFRKKQ		0.4		0.3		0.5		0.5		0.4	0.6	0.2	0.3	0.5	0.4	1.0	0.8	0.7	0.3	0.1	Recognition of the peptide by sera of SARS-CoV infected individuals, and form (linear, looped/cyclic) in which it is recognized [1]: recognized in linear form
TCTPNVTINCQDPAG															0.4	0.7	0.5	0.2			Binding of serum 1a to linear peptides of protein X5 of SARS-CoV Urbani [1]: 0.8; Binding of serum 1a to looped/cyclic peptides of protein X5 of SARS-CoV Urbani [1]: 0.2; Binding of serum 1b to linear peptides of protein X5 of SARS-CoV Urbani [1]: 0.6; Binding of serum 1b to looped/cyclic peptides of protein X5 of SARS-CoV Urbani [1]: 0.0; Binding of serum 2 to linear peptides of protein X5 of SARS-CoV Urbani [1]: 0.6; Binding of serum 2 to looped/cyclic peptides of protein X5 of SARS-CoV Urbani [1]: 0.1; Binding of serum 6 to linear peptides of protein X5 of SARS-CoV Urbani [1]: 0.8; Binding of serum 6 to looped/cyclic peptides of protein X5 of SARS-CoV Urbani [1]: 0.1; Binding of serum 37 to linear peptides of protein X5 of SARS-CoV Urbani [1]: 0.7; Binding of serum 37 to looped/cyclic peptides of protein X5 of SARS-CoV Urbani [1]: 0.1; Binding of serum 62 to linear peptides of protein X5 of SARS-CoV Urbani [1]: 0.8; Binding of serum 62 to looped/cyclic peptides of protein X5 of SARS-CoV Urbani [1]: 0.1; Binding of serum London to linear peptides of protein X5 of SARS-CoV Urbani [1]: 0.8; Binding of serum London to looped/cyclic peptides of protein X5 of SARS-CoV Urbani [1]: 0.1; Binding of serum SARS-green to linear peptides of protein X5 of SARS-CoV Urbani [1]: 0.8; Binding of serum SARS-green to looped/cyclic peptides of protein X5 of SARS-CoV Urbani [1]: 0.2; Binding of serum SARS-yellow to linear peptides of protein X5 of SARS-CoV Urbani [1]: 0.2; Binding of serum SARS-yellow to looped/cyclic peptides of protein X5 of SARS-CoV Urbani [1]: 0.0; Rabbit serum linear peptides [3]: 0.5; Rabbit serum looped peptides [3]: 0.0
